Experiments:
Assay in all cases: biochemical
Details in all cases: read-out: % inhibition mean (Z'Lyte)
GRK7 = GRK7 (Homo sapiens, UniProt Q8WTQ7)
ALK = ALK (Homo sapiens, UniProt Q9UM73)
STK3 (MST2) = STK3 (MST2) (Homo sapiens, UniProt Q13188)
FYN = FYN (Homo sapiens, UniProt P06241)
PAK2 (PAK65) = PAK2 (PAK65) (Homo sapiens, UniProt Q13177)
PRKCD (PKC delta) = PRKCD (PKC delta) (Homo sapiens, UniProt Q05655)
KIT = KIT (Homo sapiens, UniProt P10721)
GSK3A (GSK3 alpha) = GSK3A (GSK3 alpha) (Homo sapiens, UniProt P49840)
CDK5/p35 = CDK5/p35 (Homo sapiens, UniProt Q00535)
RPS6KB1 (p70S6K) = RPS6KB1 (p70S6K) (Homo sapiens, UniProt P23443)
PAK1 = PAK1 (Homo sapiens, UniProt Q13153)
Chain of PAK1 (Q13153 whole entry): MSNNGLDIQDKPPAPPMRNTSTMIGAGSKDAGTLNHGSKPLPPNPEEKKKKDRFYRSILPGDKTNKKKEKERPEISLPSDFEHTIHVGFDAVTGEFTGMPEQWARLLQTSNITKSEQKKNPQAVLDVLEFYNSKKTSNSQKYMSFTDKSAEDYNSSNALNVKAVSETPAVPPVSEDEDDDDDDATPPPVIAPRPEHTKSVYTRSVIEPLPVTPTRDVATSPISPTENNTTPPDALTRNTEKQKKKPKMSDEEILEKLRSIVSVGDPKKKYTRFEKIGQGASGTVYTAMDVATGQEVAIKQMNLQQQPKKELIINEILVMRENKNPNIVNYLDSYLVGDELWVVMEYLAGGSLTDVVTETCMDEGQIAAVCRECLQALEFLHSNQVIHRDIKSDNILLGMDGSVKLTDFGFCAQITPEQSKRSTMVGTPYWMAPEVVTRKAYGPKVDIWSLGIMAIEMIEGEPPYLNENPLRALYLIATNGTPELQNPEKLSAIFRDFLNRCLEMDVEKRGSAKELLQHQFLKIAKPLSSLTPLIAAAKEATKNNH

MAP4K4 (HGK) = MAP4K4 (HGK) (Homo sapiens, UniProt O95819)
PTK2 (FAK) = PTK2 (FAK) (Homo sapiens, UniProt Q05397)
Chain of PTK2 (FAK) (Q05397 whole entry): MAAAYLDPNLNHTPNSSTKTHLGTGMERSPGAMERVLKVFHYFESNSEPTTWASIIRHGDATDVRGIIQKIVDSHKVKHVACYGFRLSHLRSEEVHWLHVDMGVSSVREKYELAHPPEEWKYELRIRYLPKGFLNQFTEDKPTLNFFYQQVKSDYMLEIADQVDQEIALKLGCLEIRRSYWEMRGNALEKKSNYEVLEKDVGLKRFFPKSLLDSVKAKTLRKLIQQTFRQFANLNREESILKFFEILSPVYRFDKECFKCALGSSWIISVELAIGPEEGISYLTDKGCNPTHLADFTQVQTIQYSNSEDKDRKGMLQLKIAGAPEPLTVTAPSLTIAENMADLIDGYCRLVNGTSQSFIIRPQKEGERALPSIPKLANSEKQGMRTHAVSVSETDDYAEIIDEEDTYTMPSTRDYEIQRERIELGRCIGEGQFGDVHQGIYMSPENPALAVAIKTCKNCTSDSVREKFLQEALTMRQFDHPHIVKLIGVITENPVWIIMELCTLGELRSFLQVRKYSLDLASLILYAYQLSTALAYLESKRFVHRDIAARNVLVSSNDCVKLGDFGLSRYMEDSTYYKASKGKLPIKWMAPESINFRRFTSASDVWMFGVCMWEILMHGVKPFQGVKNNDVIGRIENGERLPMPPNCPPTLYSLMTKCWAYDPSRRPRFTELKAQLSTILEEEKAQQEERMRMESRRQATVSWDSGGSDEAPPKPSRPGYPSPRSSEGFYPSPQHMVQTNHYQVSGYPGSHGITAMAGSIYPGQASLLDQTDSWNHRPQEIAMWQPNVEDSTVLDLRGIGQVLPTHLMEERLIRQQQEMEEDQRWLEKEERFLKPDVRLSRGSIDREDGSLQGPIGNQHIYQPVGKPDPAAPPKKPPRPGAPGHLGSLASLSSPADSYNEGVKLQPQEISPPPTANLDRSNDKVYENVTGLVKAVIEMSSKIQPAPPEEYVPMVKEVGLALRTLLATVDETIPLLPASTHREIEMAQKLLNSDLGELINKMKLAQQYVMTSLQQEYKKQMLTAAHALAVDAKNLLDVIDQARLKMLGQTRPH

ROCK1 = ROCK1 (Homo sapiens, UniProt Q13464)
CAMK1G (CAMKI gamma) = CAMK1G (CAMKI gamma) (Homo sapiens, UniProt Q96NX5)
CSNK1A1 (CK1 alpha 1) = CSNK1A1 (CK1 alpha 1) (Homo sapiens, UniProt P48729)
Chain of CSNK1A1 (CK1 alpha 1) (P48729 whole entry): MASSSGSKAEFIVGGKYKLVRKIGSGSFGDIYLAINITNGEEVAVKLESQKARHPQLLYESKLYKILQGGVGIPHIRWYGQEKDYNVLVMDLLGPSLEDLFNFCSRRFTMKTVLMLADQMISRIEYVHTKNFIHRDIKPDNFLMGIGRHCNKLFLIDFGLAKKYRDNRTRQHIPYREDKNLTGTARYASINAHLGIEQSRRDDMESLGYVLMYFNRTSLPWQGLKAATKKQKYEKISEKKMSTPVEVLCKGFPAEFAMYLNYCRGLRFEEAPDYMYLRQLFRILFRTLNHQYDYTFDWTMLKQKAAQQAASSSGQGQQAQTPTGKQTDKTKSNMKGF

RPS6KA4 (MSK2) = RPS6KA4 (MSK2) (Homo sapiens, UniProt O75676)
MAP2K6 (MKK6) = MAP2K6 (MKK6) (Homo sapiens, UniProt P52564)
DNA-PK = DNA-PK (Homo sapiens, UniProt P78527)
PHKG2 = PHKG2 (Homo sapiens, UniProt P15735)
IGF1R = IGF1R (Homo sapiens, UniProt P08069)
PDGFRA V561D = PDGFRA V561D (Homo sapiens, UniProt P16234, V561D)
Chain of PDGFRA V561D (P16234 whole entry V561D): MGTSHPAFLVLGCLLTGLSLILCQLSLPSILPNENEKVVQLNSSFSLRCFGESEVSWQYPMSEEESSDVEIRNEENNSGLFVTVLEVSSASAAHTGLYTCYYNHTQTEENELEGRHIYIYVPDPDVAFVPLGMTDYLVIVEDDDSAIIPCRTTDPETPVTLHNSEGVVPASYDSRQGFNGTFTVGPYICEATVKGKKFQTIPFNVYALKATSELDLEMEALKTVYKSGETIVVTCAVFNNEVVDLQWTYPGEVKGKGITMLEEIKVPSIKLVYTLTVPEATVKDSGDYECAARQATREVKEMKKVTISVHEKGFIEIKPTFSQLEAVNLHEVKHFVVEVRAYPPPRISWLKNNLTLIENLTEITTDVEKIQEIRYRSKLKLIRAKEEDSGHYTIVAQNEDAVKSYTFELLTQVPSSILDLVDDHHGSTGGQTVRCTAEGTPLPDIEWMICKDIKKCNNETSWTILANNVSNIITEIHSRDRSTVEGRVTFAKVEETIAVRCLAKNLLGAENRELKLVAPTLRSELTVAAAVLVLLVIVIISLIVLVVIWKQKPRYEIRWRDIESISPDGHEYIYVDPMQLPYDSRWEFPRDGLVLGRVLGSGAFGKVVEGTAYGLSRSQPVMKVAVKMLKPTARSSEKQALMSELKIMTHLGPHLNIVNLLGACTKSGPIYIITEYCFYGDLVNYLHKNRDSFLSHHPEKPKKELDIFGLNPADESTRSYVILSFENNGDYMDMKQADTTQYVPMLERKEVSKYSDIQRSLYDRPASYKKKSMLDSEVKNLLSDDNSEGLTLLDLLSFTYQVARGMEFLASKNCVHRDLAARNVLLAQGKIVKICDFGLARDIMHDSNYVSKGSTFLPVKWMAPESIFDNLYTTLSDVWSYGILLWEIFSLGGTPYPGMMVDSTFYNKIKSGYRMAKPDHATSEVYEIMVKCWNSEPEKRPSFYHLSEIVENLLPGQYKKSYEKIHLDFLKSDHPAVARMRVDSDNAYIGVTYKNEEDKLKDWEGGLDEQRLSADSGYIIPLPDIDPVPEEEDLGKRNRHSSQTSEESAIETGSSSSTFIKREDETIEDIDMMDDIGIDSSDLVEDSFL

MYLK2 (skMLCK) = MYLK2 (skMLCK) (Homo sapiens, UniProt Q9H1R3)
EGFR (ErbB1) G719C = EGFR (ErbB1) G719C (Homo sapiens, UniProt P00533, G719C)
BRSK1 (SAD1) = BRSK1 (SAD1) (Homo sapiens, UniProt Q8TDC3)
MAPK11 (p38 beta) = MAPK11 (p38 beta) (Homo sapiens, UniProt Q15759)
Chain of MAPK11 (p38 beta) (Q15759 whole entry): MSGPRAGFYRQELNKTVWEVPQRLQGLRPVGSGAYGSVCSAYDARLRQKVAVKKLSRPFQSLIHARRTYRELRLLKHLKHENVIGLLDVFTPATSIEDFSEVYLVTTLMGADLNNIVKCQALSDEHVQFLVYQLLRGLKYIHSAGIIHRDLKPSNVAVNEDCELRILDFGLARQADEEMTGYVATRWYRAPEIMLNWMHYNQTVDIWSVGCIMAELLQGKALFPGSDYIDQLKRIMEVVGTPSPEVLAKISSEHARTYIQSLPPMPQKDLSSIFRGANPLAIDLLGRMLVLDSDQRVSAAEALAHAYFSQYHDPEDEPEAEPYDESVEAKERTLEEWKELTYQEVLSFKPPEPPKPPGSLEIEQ

RPS6KB2 (p70S6Kb) = RPS6KB2 (p70S6Kb) (Homo sapiens, UniProt Q9UBS0)
JAK2 = JAK2 (Homo sapiens, UniProt O60674)

Chain of ALK (Q9UM73 whole entry): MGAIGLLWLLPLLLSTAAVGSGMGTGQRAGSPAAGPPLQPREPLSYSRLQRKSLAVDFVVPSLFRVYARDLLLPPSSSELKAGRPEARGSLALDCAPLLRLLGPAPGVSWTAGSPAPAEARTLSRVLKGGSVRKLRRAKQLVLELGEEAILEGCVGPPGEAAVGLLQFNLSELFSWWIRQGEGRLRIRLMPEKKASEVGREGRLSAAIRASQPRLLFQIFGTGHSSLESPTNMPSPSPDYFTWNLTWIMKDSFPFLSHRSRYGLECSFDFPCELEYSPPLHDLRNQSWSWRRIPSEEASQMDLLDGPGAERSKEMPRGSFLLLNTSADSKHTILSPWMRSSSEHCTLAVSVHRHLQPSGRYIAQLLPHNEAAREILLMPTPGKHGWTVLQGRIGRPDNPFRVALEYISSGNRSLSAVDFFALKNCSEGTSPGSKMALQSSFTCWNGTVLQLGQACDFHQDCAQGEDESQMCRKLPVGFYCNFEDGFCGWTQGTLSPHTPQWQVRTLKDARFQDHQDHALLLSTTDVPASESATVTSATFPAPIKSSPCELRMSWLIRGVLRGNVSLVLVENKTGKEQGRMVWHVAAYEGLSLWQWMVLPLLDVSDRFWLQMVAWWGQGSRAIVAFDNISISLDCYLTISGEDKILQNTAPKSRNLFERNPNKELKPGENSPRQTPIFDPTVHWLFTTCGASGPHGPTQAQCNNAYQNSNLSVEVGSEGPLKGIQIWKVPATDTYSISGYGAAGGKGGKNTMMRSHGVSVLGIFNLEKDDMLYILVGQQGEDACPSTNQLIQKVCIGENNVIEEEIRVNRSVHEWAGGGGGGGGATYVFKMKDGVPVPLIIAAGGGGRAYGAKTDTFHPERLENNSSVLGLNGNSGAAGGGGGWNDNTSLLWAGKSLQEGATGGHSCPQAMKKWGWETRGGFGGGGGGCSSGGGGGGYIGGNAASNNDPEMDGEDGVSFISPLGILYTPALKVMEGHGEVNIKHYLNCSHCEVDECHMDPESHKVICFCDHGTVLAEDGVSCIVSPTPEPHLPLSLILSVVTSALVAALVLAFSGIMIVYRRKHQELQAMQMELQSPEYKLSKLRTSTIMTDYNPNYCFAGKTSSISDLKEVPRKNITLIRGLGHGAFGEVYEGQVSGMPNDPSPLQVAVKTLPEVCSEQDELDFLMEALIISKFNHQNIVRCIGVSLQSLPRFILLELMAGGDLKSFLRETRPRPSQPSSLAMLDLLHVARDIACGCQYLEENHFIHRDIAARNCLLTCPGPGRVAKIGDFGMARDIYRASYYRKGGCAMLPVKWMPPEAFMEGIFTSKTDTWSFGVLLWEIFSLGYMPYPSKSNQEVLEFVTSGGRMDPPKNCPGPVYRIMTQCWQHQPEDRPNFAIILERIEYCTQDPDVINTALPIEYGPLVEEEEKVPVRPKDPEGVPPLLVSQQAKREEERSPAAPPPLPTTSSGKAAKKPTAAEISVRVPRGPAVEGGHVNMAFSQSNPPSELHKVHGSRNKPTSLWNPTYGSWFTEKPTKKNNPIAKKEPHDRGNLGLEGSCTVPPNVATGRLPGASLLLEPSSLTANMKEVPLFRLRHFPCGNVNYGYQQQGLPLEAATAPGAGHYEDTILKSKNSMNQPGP

Molecule `COc1ccc2nc3cc(Cl)ccc3c(Nc3cc(CN4CCCC4)c(O)c(CN4CCCC4)c3)c2n1` [Pyronaridine, 4-[(7-Chloro-2-methoxybenzo[b][1,5]naphthyridin-10-yl)amino]-2,6-bis(1-pyrrolidinylmethyl)phenol phosphate (1:4)] has an inhibition at 1 µM (GRK7) of 4%, an inhibition at 1 µM (ALK) of -1% and an inhibition at 1 µM (STK3 (MST2)) of -2%. For the same molecule, the inhibition at 1 µM (FYN) was 2%, the inhibition at 1 µM (PAK2 (PAK65)) was -1% and the inhibition at 1 µM (PRKCD (PKC delta)) was 3%. It also gave an inhibition at 1 µM (KIT) of -2%, an inhibition at 1 µM (GSK3A (GSK3 alpha)) of 4% and an inhibition at 1 µM (CDK5/p35) of 3%. It also gave an inhibition at 1 µM (RPS6KB1 (p70S6K)) of 3%, an inhibition at 1 µM (PAK1) of 6% and an inhibition at 1 µM (MAP4K4 (HGK)) of 1%. The inhibition at 1 µM (PTK2 (FAK)) was 2%, the inhibition at 1 µM (ROCK1) was 2% and the inhibition at 1 µM (CAMK1G (CAMKI gamma)) was 0%. It also gave an inhibition at 1 µM (CSNK1A1 (CK1 alpha 1)) of 5%, an inhibition at 1 µM (RPS6KA4 (MSK2)) of -4% and an inhibition at 1 µM (MAP2K6 (MKK6)) of 3%. The inhibition at 1 µM (DNA-PK) was 5%, the inhibition at 1 µM (PHKG2) was -2% and the inhibition at 1 µM (IGF1R) was 6%. For the same molecule, the inhibition at 1 µM (PDGFRA V561D) was 2%, the inhibition at 1 µM (MYLK2 (skMLCK)) was 7% and the inhibition at 1 µM (EGFR (ErbB1) G719C) was -4%. The inhibition at 1 µM (BRSK1 (SAD1)) was 2%, the inhibition at 1 µM (MAPK11 (p38 beta)) was -8% and the inhibition at 1 µM (RPS6KB2 (p70S6Kb)) was -4%. It also gave an inhibition at 1 µM (JAK2) of 4%.

From publication doi:10.1101/2021.09.30.462449v1 (biorxiv, 2021)
